Experimental findings from patent US8551984B2, “Aminopyrimidines as SYK inhibitors” (Merck Sharp & Dohme Corp., priority 2009, dated 2013) are described below.

The first experiment has as its target recombinant human SYK (GST-hSYK fusion protein) (Homo sapiens, UniProt P43405). The experiment can be described thus: biochemical. The following applies: rhSYK Activity, Table 113A.
Description: Homogeneous Time-Resolved Fluorescence (HTRF) Assay for the Recombinant Human SYK Enzyme:
Consider `CCOC(=O)C1CCC(O)(c2ncc(-c3cc(C)cc(Nc4nccc(CC)n4)c3)s2)CC1C` (stereo not drawn) [Example 113A-31], for which the IC50 is less than 100 nM.

In the case of `Cc1cc(Nc2ncc(F)c(C3CC3)n2)cc(-c2cnc([C@@]3(O)CC[C@H](C(=O)O)[C@H](C)C3)s2)c1` [Example 113A-33], the IC50 was less than 100 nM.

Regarding `Cc1cc(Nc2ncc(F)c(C3CC3)n2)cc(-c2cnc([C@]3(O)CC[C@@H](C(=O)O)[C@@H](C)C3)s2)c1` [Example 113A-34], the IC50 was less than 100 nM.

Regarding `Cc1cc(Nc2nccc(OC(C)C)n2)cc(-c2cnc([C@]3(O)CC[C@@H](C(=O)O)[C@@H](C)C3)s2)c1` [Example 113A-35], the half-inhibitory concentration (IC50) is less than 100 nM.

`COc1nc(Nc2cc(C)cc(-c3cnc([C@@]4(O)CC[C@H](C(=O)O)[C@H](C)C4)s3)c2)ncc1Cl` [Example 113A-36]: the IC50 is less than 100 nM.

As to `COc1nc(Nc2cc(C)cc(-c3cnc([C@]4(O)CC[C@@H](C(=O)O)[C@@H](C)C4)s3)c2)ncc1Cl` [Example 113A-37], the IC50 was less than 100 nM.

Turning to `COCCOc1ccnc(Nc2cc(C)cc(-c3cnc(C4(O)CCC(C(=O)O)C(C)C4)s3)c2)n1` (stereo not drawn) [Example 113A-38], the IC50 was less than 100 nM.

Regarding `COCCCOc1ccnc(Nc2cc(C)cc(-c3cnc(C4(O)CCC(C(=O)O)C(C)C4)s3)c2)n1` (stereo not drawn) [Example 113A-40], the IC50 was less than 100 nM.

Turning to `COCc1cc(Nc2nccc(C(F)(F)F)n2)cc(-c2cnc(C3(O)CCC(C(=O)O)C(C)C3)s2)c1` (stereo not drawn) [Example 113A-42], the IC50 was less than 100 nM.

As for `CCOC(=O)C1CCC(O)(c2ncc(-c3cc(C)cc(Nc4nccc(OCCOC)n4)c3)s2)CC1C` (stereo not drawn) [Example 113A-43], the IC50 is less than 100 nM.

As to `CCOC(=O)C1CCC(O)(c2ncc(-c3cc(C)cc(Nc4nccc(OCCCOC)n4)c3)s2)CC1C` (stereo not drawn) [Example 113A-47], the IC50 is less than 100 nM.

Consider `CCc1ccnc(Nc2cc(C)cc(-c3cnc([C@@]4(O)CC[C@H](C(=O)O)C(C)(C)C4)s3)c2)n1` [Example 113A-49], for which the IC50 was less than 100 nM.

As to `COC(=O)[C@H]1CC[C@](O)(c2ncc(-c3cc(C)cc(Nc4nccc(C#N)n4)c3)s2)CC1(C)C` [Example 113A-50], the half-maximal inhibitory concentration (IC50) is less than 100 nM.

For `Cc1cc(Nc2nccc(C3CC3)n2)cc(-c2cnc(C3(O)CCC(C(=O)O)C(C)(C)C3)s2)c1` (stereo not drawn) [Example 113A-51], the concentration for half-maximal inhibition (IC50) is less than 100 nM.

As for `Cc1cc(Nc2nccc(C(C)C)n2)cc(-c2cnc(C3(O)CCC(C(=O)O)C(C)(C)C3)s2)c1` (stereo not drawn) [Example 113A-52], the half-maximal inhibitory concentration (IC50) was less than 100 nM.

As for `CCc1ccnc(Nc2cc(C)cc(-c3cnc([C@@]4(O)CC[C@H](C(=O)OC)C(C)(C)C4)s3)c2)n1` [Example 113A-53], the IC50 was less than 100 nM.

Take `COC(=O)[C@H]1CC[C@](O)(c2ncc(-c3cc(C)cc(Nc4nccc(OC)n4)c3)s2)CC1(C)C` [Example 113A-54]: the half-maximal inhibitory concentration (IC50) is less than 100 nM.

As for `COC(=O)[C@@H]1CC[C@@](O)(c2ncc(-c3cc(C)cc(Nc4nccc(OC)n4)c3)s2)CC1(C)C` [Example 113A-55], the IC50 was less than 100 nM.

Take `COC(=O)C1CCC(O)(c2ncc(-c3cc(C)cc(Nc4nccc(C5CC5)n4)c3)s2)CC1(C)C` (stereo not drawn) [Example 113A-56]: the IC50 was less than 100 nM.

In the case of `Cc1cc(Nc2ncc(F)c(C3CC3)n2)cc(-c2cnc(C3(O)CCC(C(=O)O)C(C)(C)C3)s2)c1` (stereo not drawn) [Example 113A-57], the IC50 is less than 100 nM.

As for `Cc1cc(Nc2ncc(F)c(C3CC3)n2)cc(-c2cnc([C@@]3(O)CC[C@H](C(=O)O)C(C)(C)C3)s2)c1` [Example 113A-58], the IC50 was less than 100 nM.

`COCc1cc(Nc2nccc(C(F)(F)F)n2)cc(-c2cnc([C@@]3(O)CC[C@H](C(=O)O)C(C)(C)C3)s2)c1` [Example 113A-62]: the IC50 was less than 100 nM.

For `COC(=O)C1CCC(O)(c2ncc(-c3cc(Cl)cc(Nc4nccc(C(F)(F)F)n4)c3)s2)CC1(C)C` (stereo not drawn) [Example 113A-63], the IC50 was 100 to 1000 nM.

As to `Cc1cc(Nc2nccc(C)n2)cc(-c2cnc(C3(O)CCC(C(=O)O)C(C)C3C)s2)c1` (stereo not drawn) [Example 113A-66], the IC50 was less than 100 nM.

With `CCOC(=O)C1CCC(O)(c2ncc(-c3cc(C)cc(Nc4nccc(C)n4)c3)s2)C(C)C1C` (stereo not drawn) [Example 113A-70], the IC50 was less than 100 nM.

Consider `Cc1cc(Nc2nccc(C)n2)cc(-c2cnc(C3(O)CCC(C(=O)O)CC3C)s2)c1` (stereo not drawn) [Example 113A-80], for which the 50% inhibitory concentration (IC50) was less than 100 nM.

Regarding `CCOC(=O)C1CCC(O)(c2ncc(-c3cc(C)cc(Nc4nccc(C)n4)c3)s2)C(C)C1` (stereo not drawn) [Example 113A-87], the IC50 was less than 100 nM.

Turning to `Cc1cc(Nc2nccc(C(F)(F)F)n2)cc(-c2cnc(C3(O)CCC(C(=O)O)CC3C)s2)c1` (stereo not drawn) [Example 113A-88], the IC50 is less than 100 nM.

Take `CCOC(=O)C1CCC(O)(c2ncc(-c3cc(C)cc(Nc4nccc(C(F)(F)F)n4)c3)s2)C(C)C1` (stereo not drawn) [Example 113A-89]: the IC50 is less than 100 nM.

With `Cc1cc(Nc2nccc(C)n2)cc(-c2cnc(C3(O)CCC(C(=O)O)CC3O)s2)c1` (stereo not drawn) [Example 113A-90], the half-maximal inhibitory concentration (IC50) is less than 100 nM.

On to `Cc1cc(Nc2nccc(C)n2)cc(-c2cnc(C3(O)CCC(C(=O)O)CC3(C)C)s2)c1` (stereo not drawn) [Example 113A-92], for which the IC50 was less than 100 nM.

The same experiment, now with this note: rhSYK Activity, Table 113B.
As for `Cc1cc(Nc2nccc(C)n2)cc(-c2cnc(C3(O)CC(C)C(C(=O)O)CC3C)s2)c1` (stereo not drawn) [Example 113B-3], the concentration for half-maximal inhibition (IC50) is less than 100 nM.

Turning to `CCOC(=O)C1CC(C)C(O)(c2ncc(-c3cc(C)cc(Nc4nccc(C)n4)c3)s2)CC1C` (stereo not drawn) [Example 113B-7], the IC50 is less than 100 nM.

In the case of `CCOC(=O)C1CC(C)C(O)(c2ncc(-c3cc(C)cc(Nc4nccc(C)n4)c3)s2)CC1C` (stereo not drawn) [Example 113B-8], the IC50 is less than 100 nM.

As to `CCOC(=O)C1CC(C)C(O)(c2ncc(-c3cc(C)cc(Nc4nccc(C)n4)c3)s2)CC1C` (stereo not drawn) [Example 113B-9], the half-maximal inhibitory concentration (IC50) was less than 100 nM.

For the molecule `CCOC(=O)C1CC(C)C(O)(c2ncc(-c3cc(C)cc(Nc4nccc(C)n4)c3)s2)CC1C` (stereo not drawn) [Example 113B-10], the IC50 is less than 100 nM.

As to `CCOC(=O)C1CC(C)C(O)(c2ncc(-c3cc(C)cc(Nc4nccc(C)n4)c3)s2)CC1C` (stereo not drawn) [Example 113B-11], the IC50 lay in the range of 100 to 1000 nM.

For `Cc1cc(Nc2nccc(C(F)(F)F)n2)cc(-c2cnc(C3(O)CC(C)C(C(=O)O)CC3C)s2)c1` (stereo not drawn) [Example 113B-12], the concentration for half-maximal inhibition (IC50) was less than 100 nM.

For `CCOC(=O)C1CC(C)C(O)(c2ncc(-c3cc(C)cc(Nc4nccc(C(F)(F)F)n4)c3)s2)CC1C` (stereo not drawn) [Example 113B-17], the IC50 is less than 100 nM.

For `CCOC(=O)C1CC(C)C(O)(c2ncc(-c3cc(C)cc(Nc4nccc(C(F)(F)F)n4)c3)s2)CC1C` (stereo not drawn) [Example 113B-18], the IC50 is less than 100 nM.

Take `CCOC(=O)C1CC(C)C(O)(c2ncc(-c3cc(C)cc(Nc4nccc(C(F)(F)F)n4)c3)s2)CC1C` (stereo not drawn) [Example 113B-19]: the IC50 was less than 100 nM.

As for `CCOC(=O)C1CC(C)C(O)(c2ncc(-c3cc(C)cc(Nc4nccc(C(F)(F)F)n4)c3)s2)CC1C` (stereo not drawn) [Example 113B-20], the IC50 lay within 100 to 1000 nM.

As to `Cc1cc(Nc2nccc(C)n2)cc(-c2cnc(C3(O)CC(C)C(C(=O)O)C(C)C3)s2)c1` (stereo not drawn) [Example 113B-21], the IC50 is less than 100 nM.

On to `Cc1cc(Nc2nccc(C)n2)cc(-c2cnc(C3(O)CC(C)C(C(=O)OC(C)C)C(C)C3)s2)c1` (stereo not drawn) [Example 113B-23], for which the IC50 lay in the range of 100 to 1000 nM.

Turning to `Cc1cc(Nc2nccc(C(F)(F)F)n2)cc(-c2cnc(C3(O)CC(C)C(C(=O)O)C(C)C3)s2)c1` (stereo not drawn) [Example 113B-24], the IC50 is less than 100 nM.

One may read the IC50 as the concentration needed to halve the response being measured.
